Assay [1] has as its system autophagic flux in NSCLC cell lines. As to the kind of experiment: Autophagy flux assay in NSCLC cell lines, DCC-3116 with trametinib. Type of assay: cell-based. As to conditions: multiple NSCLC cell lines, FIG. 6B. As to the method:
Constructs were designed through VectorBuilder. For each cell line, 10 ml of appropriate media was mixed with Polybrene (VectorBuilder, Cat #PL0001, stock concentration 5 mg/ml, 200 ul) to a final concentration of 15 ng/μL. These solutions were added to the 6-well plate with various cell lines plated the previous day. Cells were checked after 22 hours of incubation. Media was then removed from the cells and incubated with fresh media containing puromycin (Sigma Cat #P9620). Cells that survived puromycin selection and successfully expressed mCherry-GFP-LC3 were used for flux assays.
Cells are seeded in FluoroBrite DMEM (Gibco Ref #A18967-01) supplemented with 10% FBS (Gibco ref #A384000-001) and Pen/Strep/Glutamine (Gibco Ref #10378-016) at appropriate seeding numbers defined empirically. The next day, cells are treated with DCC-3116 and/or trametinib or DMSO as a control. Cells are placed in the IncuCyte for live cell imaging over the indicated time length at 37° C. with 20% 02 and 5% CO2. Cells were imaged at 4× objective lens every four hours. The data was analyzed using the Incucyte software by measuring Total Integrated Intensity (GCUX μM2/images) of red (mCherry) divided by (GCUX μM2/images) green (GFP) to measure the ratio of red/green signal change over time.

Another assay concerns ULK. Nature of the assay: pATG13 ELISA in Colo-205 cells, DCC-3116 with encorafenib and cetuximab. The assay is classed as cell-based. As to conditions: Colo-205 cell line, FIG. 23. As to the method: Plates were incubated for 45 hr.

“Also recorded” adds a separate entry of the source.

For the compound `CCc1cc(N2CCN(C)CC2)ccc1Nc1ncc(C(F)(F)F)c(NCCCN2CCOCCC2=O)n1` [DCC-3116], the “effect on trametinib-induced autophagic flux” value in assay [1] was “inhibited”. Also, the “effect on encorafenib- and cetuximab-induced phosphorylation of ATG13” value in the assay on ULK is recorded as “inhibited; also recorded: dose-dependent inhibition”.

The record behind these values is patent publication US20240180923A1, “METHODS OF TREATING DISORDERS WITH ULK INHIBITORS” (Deciphera Pharmaceuticals, LLC, priority 2022, published 2024).
